Assay results reported in paper PMC10394814, “Discovery and evaluation of active compounds from Xuanfei Baidu formula against COVID-19 via SARS-CoV-2 M^pro” (Chinese Medicine, 2023).

Legend:
Omicron BA.2.3 variant = experiment: Antiviral activity assay (CPE) in Vero E6 cells, Omicron BA.2.3; format: cell-based, SARS-CoV-2; details: Severe acute respiratory syndrome coronavirus 2, Vero C1008, 48 h
Omicron BA.1.1 variant = experiment: Antiviral activity assay (CPE) in Vero E6 cells, Omicron BA.1.1; format: cell-based, SARS-CoV-2; details: Severe acute respiratory syndrome coronavirus 2, Vero C1008, 48 h

C[C@@H]1O[C@@H](O[C@@H]2[C@@H](O)[C@H](OCCc3ccc(O)c(O)c3)O[C@H](CO)[C@H]2OC(=O)/C=C/c2ccc(O)c(O)c2)[C@H](O)[C@H](O)[C@H]1O [Acteoside]
EC50 (Omicron BA.2.3 variant): 70.4 µM
EC50 (Omicron BA.1.1 variant): 41.3 µM
